Eight molecules from patent EP0808833B1, “Vitamin D3 analogs” (F. HOFFMANN-LA ROCHE AG, priority 1996, dated 1997) can be followed below.

Where two headings read alike, the source gives them in different places. Marks after values point to notes of the source that are not given here.

A short description of data set [1]: Calcium tolerance test in mice. The data set is classed as in vivo. The conditions noted are these: highest tolerated dose = dose resulting in zero weight gain, daily subcutaneous administration for 4 consecutive days; for MTD: mouse, in vivo, sc, read-out: HTD. The source says: Calcium tolerance test in mice
Profound changes in calcium homeostasis strongly affect the weight development of mice. Mice (25-30 g body weight) received daily subcutaneous administrations of the compound for 4 consecutive days. Body weight was registered just before and at the end of a […] treatment period. The "highest tolerated dose" (HTD) is the dose which results in zero weight gain during this treatment period.

In a further data set the test system is sebaceous cells. The data set can be described thus: Inhibition of human sebocyte proliferation in vitro. The data set is classed as cell-based. Conditions: amount of compound necessary to inhibit proliferation of sebaceous cells by 50% as compared to a vehicle-treated culture, tested at 10^-6, 10^-7 and 10^-8 M, read-out: ED50 (the source's name). The protocol:
Inhibition of Human Sebocyte Proliferation In Vitro
The cells were cultured in Iscove's medium containing 10% fetal calf serum and 4 µg/ml dexamethasone on a layer of growth-arrested 3T3 mouse fibroblasts. Cells were plated in medium without the test compound and then given test compound in fresh medium 24-48 hours after the initial plating. The cultures were given fresh medium, containing the test compound, every 48 hours. On the day of harvesting, the cultures were rinsed with 0.03% EDTA (ethylenediamine tetroacetic acid) in PBS (phosphate-buffered saline), to remove only the 3T3 fibroblasts, followed by incubation in 0.05% trypsin/0.03% EDTA. The cells were suspended, mixed vigorously to prepare a single cell suspension and counted in a hemocytometer.
Stock solutions of compounds were made up as 10^-2 M solutions in degassed 100% ethanol and stored at -20°C in the dark. During experimental use, the solutions, which have been aliquoted, were brought to room temperature and used by diluting directly into complete medium to the appropriate concentration.

A further data set concerns HL-60 cells. The data set can be described thus: HL-60 cell differentiation (NBT reduction). Format: cell-based. The conditions noted are these: Homo sapiens, HL-60, 72 h, concentration leading to 50% of maximal differentiation achieved with 100-1000 nM calcitriol, 3 days, read-out: ED50 (the source's name).
Data set [2] has as its system T47-D breast carcinoma cells. The data set can be described thus: Antiproliferative activity in T47-D breast carcinoma cells (MTT). The data set is classed as cell-based. Conditions: Homo sapiens, T47D, 72 h.
The next data set has as its system HaCaT cells. As to the kind of experiment: Inhibition of keratinocyte proliferation (3H-thymidine uptake, HaCaT). The data set is classed as cell-based. The conditions noted are these: Homo sapiens, 3H-thymidine incorporation after 6 days of culture in presence of the test compound.
Data set [3] relates to UVB-Induced Dermal Damage. As to the kind of experiment: Repair of UVB-induced dermal damage in the hairless mouse. Format: in vivo, Hairless mice. Conditions: treated three times per week after UVB irradiation. Here is the method: Repair of UVB-Induced Dermal Damage in the Hairless Mouse by Compounds of Formula I Hairless mice (female, HRS/J strain, Jackson Labs, 5-7 weeks old at the start of the experiments) were housed in yellow light and irradiated three times per week with a bank of 8 Westinghouse Sunlamps (FS72T12 HO, peak irradiance at 313 nm) placed about 20 cm above the animals. UVB output was measured on an International Light Research Radiometer, model IL 1700, using a SEE240 detector. With this setup, the lamp output was approximately 3.5 mW/cm^2 and the time of exposure for 0.06 J/cm^2 was about 17 seconds; 1 MED is approximately 0.03 J/cm^2. The precise dose was delivered by a IL […] Phototherapy Exposure Control. Daily doses were 0.03 J/cm^2 for two weeks, 0.06 J/cm^2 for two weeks and 0.08 J/cm^2 thereafter, until a total dose of approximately 4 J/cm^2 was accumulated. To effect repair of the dermal damage, the UVB irradiation was discontinued and the animals were divided into groups of approximately eight and treated three times per week with various concentrations of the vitamin D analogs dissolved in ethanol. All dosing was done under yellow light. […] In these studies, since the width of the zone varies considerably, the area of the zone on a standard length of histological section is measured by image analysis. Compounds are tested at three doses and an approximate ED50 calculated.

For the molecule `C=C1C(=CC=C2CCCC3(C)C(C(C)C/C=C\C(O)(C(F)(F)F)C(F)(F)F)=CCC23)CC(O)CC1O` (stereo not drawn) [1,25-Dihydroxy-16,23Z-diene-26,27-hexafluoro-20-epi-cholecalciferol], the HTD in data set [1] came to 2.5 µg/kg.
`C=C1/C(=C\C=C2/CCC[C@]3(C)C([C@@H](C)CC#CC(O)(C(F)(F)F)C(F)(F)F)=CC[C@@H]23)C[C@@H](O)C[C@@H]1O` [1,25-Dihydroxy-16-ene-23-yne-26,27-hexafluoro-20-epi-cholecalciferol]: the EC50 with sebaceous cells is less than 10 nM. The HTD in data set [1] is on record as 6.0 µg/kg.
Turning to `C=C1C(=CC=C2CCCC3(C)C(C(C)CC#CC(C)(C)O)=CCC23)CC(O)CC1O` (stereo not drawn) [1,25-Dihydroxy-16-ene-23-yne-20-epi-cholecalciferol], in the data set on sebaceous cells, the EC50 was determined as 50 nM. In data set [1], the HTD was found to be 100 µg/kg.
On the same counts, the results for `C=C1C(=CC=C2CCCC3(C)C(C(C)CCCC(C)(C)O)=CCC23)CC(O)CC1O` (stereo not drawn) [1,25-Dihydroxy-16-ene-20-epi-cholecalciferol] are less than 1 nM and 30 µg/kg.
In the case of `C=C1C(=CC=C2CCCC3(C)C(C(C)C/C=C\C(O)(C(F)(F)F)C(F)(F)F)=CCC23)CC(O)CC1F` (stereo not drawn) [1α-Fluoro-25-hydroxy-16,23Z-diene-26,27-hexafluoro-20-epi-cholecalciferol], the HTD in data set [1] amounted to 8.0 µg/kg.
For the molecule `C=C1/C(=C\C=C2/CCC[C@]3(C)[C@@H]([C@H](C)CCCC(C)(C)O)CC[C@@H]23)C[C@@H](O)C[C@@H]1O` [1,25-Dihydroxy-cholecalciferol, reference compound], the MTD in data set [1] turned out to be 0.5 µg/kg.
For `C=C1/C(=C\C=C2/CCC[C@]3(C)C([C@@H](C)C/C=C/C(O)(C(F)(F)F)C(F)(F)F)=CC[C@@H]23)C[C@@H](O)C[C@@H]1O` [1,25-Dihydroxy-16,23E-diene-26,27-hexafluoro-20-epi-cholecalciferol], the EC50 in the data set with HL-60 cells was 0.37 nM; in the data set with sebaceous cells (Homo sapiens), less than 10 nM. The IC50 came out at 10 nM in data set [2] and 0.7 nM in the data set on HaCaT cells. Also, in data set [1], the MTD worked out at 2.5 µg/kg. Moreover, the “Repair Zone” value is 0.0282±0.0092*** mm^2 in data set [3] (Dose 0.1 µg, P < 0.001 vs vehicle control) and 0.0102±0.0067* mm^2 in data set [3] (Dose 0.5 µg, P < 0.05 vs vehicle control).
In the case of “1,25-Dihydroxy-16,23Z-diene-26,27-hexafluoro-20-epi-19-norcholecalciferol”, the HTD in data set [1] is 3.0 µg/kg.
